Measured values reported in patent publication US20250179057A1, “MEK IMMUNE ONCOLOGY INHIBITORS AND THERAPEUTIC USES THEREOF” (Immuneering Corporation, priority 2022, published 2025).

Assays:
Caco-2 cells = experiment: Caco-2 bidirectional permeability (absorption & efflux); details: Example 47
[1] = Plasma stability, rat plasma (Wistar Han / wistar hannover; Table 5 head SD Rat); format: in vitro ADME; details: wistar hannover rat plasma, 2 μM, anti-coagulant K2-EDTA; for % Remaining at T120: 120 min
Method: (§1) Individual stock solutions of propantheline and lovastatin were prepared at 10 mM in DMSO and were further diluted to 2 mM with DMSO.
(§2) Frozen matrices (Balb/c mouse, Wistar Han rat, Beagle dog, and human plasma containing K2EDTA as anti-coagulant) were thawed and centrifuged at 3100 rpm for 10 minutes at 4° C. to remove particulates. The lipid layer was then removed, and the supernatant was transferred to a new tube without disturbing the pellet. After the matrices were incubated at 37° C. for at least 10 minutes, the pH of each matrix was adjusted to pH 7.4, using 10% phosphoric acid or 1N sodium hydroxide as necessary. Test and control article stock solutions were spiked (2 μL) into matrix (1.998 mL) and mixed to final assay concentration of […]. Duplicate 30-μL aliquots of spiked plasma were transferred to matrix tubes in 96-well plate immediately after spiking for timepoints of 0, 30, 60, 120, 240, and 360 minutes. These tubes were then incubated at 37° C. with shaking and at each timepoint, the corresponding tubes containing samples were quenched with 180 μL of cold acetonitrile containing the internal standards. The quenched samples were vortex-mixed briefly and stored refrigerated. After the final time point (360 minutes), the plates with all quenched samples were vortex-mixed for 10 minutes and then centrifuged at 3100 rpm for 10 minutes at 4° C. to sediment the precipitated protein. The supernatant (50 μL) was transferred to a clean 96-well plate and diluted with 100 μL of water. The plates were stored refrigerated until analysis.
(§3) Data Analysis: Peak area ratios for IS-normalized test article and control article counts were used to calculate the percent remaining relative to the time zero (T0) value. As appropriate, results were plotted and further analyzed to calculate half-life (T1/2) values.
(§4) Mean peak area ratios were used to calculate the % remaining relative to the T0 value:
(§5) In this study, human, cynomolgus monkey, beagle dog, wistar hannover rat, and balb/c plasma stability was determined. Table 28 describes the results of the human plasma stability at 2 μM concentration and anti-coagulant K2-EDTA from 10 to 120 min. Table 29 describes the results of the cynomolgus monkey plasma stability at 2 μM concentration and anti-coagulant K2-EDTA. Table 30 describes the results of the beagle dog plasma stability at 2 μM concentration and anti-coagulant K2-EDTA. Table 31 describes the results of the wistar hannover rat plasma stability at 2 μM concentration and anti-coagulant K2-EDTA. Table 32 describes the results of the balb/c plasma stability at 2 μM concentration and anti-coagulant K2-EDTA.

[2] = tested on: wistar hannover rat hepatocytes; experiment: Hepatocyte stability, wistar hannover rat; format: in vitro ADME; details: 2 μM, 0.5 million cells/ml
Method: (§6) In this study, human, cynomolgus monkey, beagle dog, wistar hannover rat, and balb/c mouse hepatocyle stability was determined.

balb/c mouse hepatocytes = experiment: Hepatocyte stability, balb/c mouse; format: in vitro ADME; details: 2 μM, 0.5 million cells/ml
Method: as §6

CYP2C19 = CYP2C19 (Homo sapiens, UniProt P33261); experiment: CYP450 panel inhibition in human liver microsomes, 2C19 (mephenytoin); details: 10 μM, substrate mephenytoin
[3] = Plasma stability, cynomolgus monkey plasma (K2-EDTA); format: in vitro ADME; details: 2 μM, anti-coagulant K2-EDTA; for % Remaining at T120: 120 min
Method: as §1, §2, §3, §4, §5

beagle dog hepatocytes = experiment: Hepatocyte stability, beagle dog; format: in vitro ADME; details: 2 μM, 0.5 million cells/ml
Method: as §6

[4] = Kinetic solubility (PBS pH 7.4; 4 hr); format: physicochemical; details: for solubility kinetic at 4 h: free base (Table 19), read-out: Kinetic Solubility
How it was run: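 Compound shaken in PBS pH 7.4 for 4 h at room temperature, then centrifuged. Supernatant, diluted with DMSO, quantified by LC-UV peak area against DMSO calibration curves.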

CYP3A4 = CYP3A4 (Homo sapiens, UniProt P08684); experiment: CYP450 panel inhibition in human liver microsomes, 3A4 (midazolam / testosterone); details: 10 μM; for CYP-3A4 (Midazolam) mean percentage CYP inhibition: substrate midazolam; for CYP-3A4 (Testosterone) mean percentage CYP inhibition: substrate testosterone
[5] = Plasma stability, beagle dog plasma (K2EDTA); format: in vitro ADME; details: beagle dog plasma, 2 μM, anti-coagulant K2-EDTA; for % Remaining at T120: 120 min
Method: as §1, §2, §3, §4, §5

[6] = Plasma stability, mouse plasma (Balb/c; Table 5 head CD-1 Mouse); format: in vitro ADME; details: balb/c plasma, 2 μM, anti-coagulant K2-EDTA; for % Remaining at T120: 120 min
Method: as §1, §2, §3, §4, §5

[7] = tested on: cynomolgus monkey hepatocytes; experiment: Hepatocyte stability, cynomolgus monkey; format: in vitro ADME; details: 2 μM, 0.5 million cells/ml
Method: as §6

Sequence of CYP3A4 (P08684 whole entry): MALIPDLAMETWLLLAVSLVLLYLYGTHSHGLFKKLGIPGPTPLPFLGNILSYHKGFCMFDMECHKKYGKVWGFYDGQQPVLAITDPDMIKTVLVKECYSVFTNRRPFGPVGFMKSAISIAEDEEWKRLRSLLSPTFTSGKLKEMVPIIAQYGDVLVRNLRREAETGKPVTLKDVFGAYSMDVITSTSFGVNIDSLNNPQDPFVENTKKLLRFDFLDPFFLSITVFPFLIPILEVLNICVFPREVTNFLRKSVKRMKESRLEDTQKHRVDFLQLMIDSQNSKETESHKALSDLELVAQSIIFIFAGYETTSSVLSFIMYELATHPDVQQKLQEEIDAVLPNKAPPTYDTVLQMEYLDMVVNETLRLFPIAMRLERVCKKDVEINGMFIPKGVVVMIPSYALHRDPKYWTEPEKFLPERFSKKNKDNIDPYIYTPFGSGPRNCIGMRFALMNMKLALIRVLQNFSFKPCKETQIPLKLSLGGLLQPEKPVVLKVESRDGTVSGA
Sequence of CYP2C19 (P33261 whole entry): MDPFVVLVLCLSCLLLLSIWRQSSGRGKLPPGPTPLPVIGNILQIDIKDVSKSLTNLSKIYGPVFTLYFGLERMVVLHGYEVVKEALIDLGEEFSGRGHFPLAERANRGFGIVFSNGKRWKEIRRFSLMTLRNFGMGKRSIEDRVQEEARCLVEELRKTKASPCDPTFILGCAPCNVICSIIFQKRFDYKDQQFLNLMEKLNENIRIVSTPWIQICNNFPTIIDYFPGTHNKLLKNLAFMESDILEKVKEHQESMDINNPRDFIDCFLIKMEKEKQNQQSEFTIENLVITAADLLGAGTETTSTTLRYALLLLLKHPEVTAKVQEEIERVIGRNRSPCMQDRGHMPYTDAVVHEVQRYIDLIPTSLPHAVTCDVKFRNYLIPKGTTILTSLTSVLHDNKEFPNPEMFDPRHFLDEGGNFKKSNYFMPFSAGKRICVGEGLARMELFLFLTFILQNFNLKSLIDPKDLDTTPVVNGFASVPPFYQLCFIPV

Structure (SMILES)	A − B Permeability Ranking (Caco-2 cells)	Mean Efflux Ratio (Caco-2 cells)	Mean Papp A − B (10^−6 cm/s) (Caco-2 cells)	Mean Papp B − A (10^−6 cm/s) (Caco-2 cells)	T1/2 [1]	% Remaining at T120 [1]	% Remaining At T120 [2]	CLint (L/hr/kg) [2]	CLint (mL/min/kg) [2]	T1/2 [2]	% Remaining At T120 (balb/c mouse hepatocytes)	CLint (L/hr/kg) (balb/c mouse hepatocytes)	CLint (mL/min/kg) (balb/c mouse hepatocytes)	T1/2 (balb/c mouse hepatocytes)	CYP-2C19 (Mephenytoin) mean percentage CYP inhibition (CYP2C19)	T1/2 [3]	% Remaining at T120 [3]	% Remaining At T120 (beagle dog hepatocytes)	CLint (L/hr/kg) (beagle dog hepatocytes)	CLint (mL/min/kg) (beagle dog hepatocytes)	also measured
CNS(=O)(=O)Nc1cccc(Cc2c(CN(C)C)c3ccc(OC(=O)N(C)C)cc3oc2=O)c1F [Compound 9]	Higher	1.32	16.4 10^−6 cm/s	21.7 10^−6 cm/s	19.67 h	93.4%	34.9%	2.84 L/h/kg	47.3 mL/min/kg	1.32 h	73.8%	3.58 L/h/kg	59.7 mL/min/kg	4.57 h	17.4%	>2 h	110.4%	66.2%	2.22 L/h/kg	36.9 mL/min/kg	T1/2 (beagle dog hepatocytes): 3.37 h; Kinetic Solubility (PBS pH = 7.4; 4 hr) ([4]; PBS pH = 7.4, 4 hr (Table 8)): >80 uM; solubility kinetic at 4 h [4]: >80 µM; CYP-3A4 (Midazolam) mean percentage CYP inhibition (CYP3A4): 9.6%; CYP-3A4 (Testosterone) mean percentage CYP inhibition (CYP3A4): 30.9%; T1/2 [5]: >2 h; % Remaining at T120 [5]: 100.5%; T1/2 [6]: 8.78 h; % Remaining at T120 [6]: 86.0%; % Remaining At T120 [7]: 44.3%; CLint (L/hr/kg) [7]: 3.30 L/h/kg; CLint (mL/min/kg) [7]: 54.9 mL/min/kg; T1/2 [7]: 1.7 h
CNS(=O)(=O)Nc1cccc(Cc2c(CN(C)C)c3cc(F)c(OC(=O)N(C)C)cc3oc2=O)c1F [Compound 25]	Higher	3.82	4.39 10^−6 cm/s	16.7 10^−6 cm/s	55.43 h	95.5%	60.0%	1.38 L/h/kg	23.0 mL/min/kg	2.72 h	72.0%	3.88 L/h/kg	64.7 mL/min/kg	4.22 h	26.5%	>2 h	107.3%	62.7%	2.51 L/h/kg	41.9 mL/min/kg	T1/2 (beagle dog hepatocytes): 2.97 h; solubility kinetic at 4 h [4]: >80 µM; CYP-3A4 (Midazolam) mean percentage CYP inhibition (CYP3A4): 48.5%; CYP-3A4 (Testosterone) mean percentage CYP inhibition (CYP3A4): 47.2%; T1/2 [5]: 9.88 h; % Remaining at T120 [5]: 90.1%; T1/2 [6]: >2 h; % Remaining at T120 [6]: 99.9%; % Remaining At T120 [7]: 80.4%; CLint (L/hr/kg) [7]: 0.886 L/h/kg; CLint (mL/min/kg) [7]: 14.8 mL/min/kg; T1/2 [7]: 6.33 h
CNS(=O)(=O)Nc1nccc(Cc2c(CN(C)C)c3ccc(OC(=O)N(C)C)cc3oc2=O)c1F [Compound 124]	Higher	5.12	3.51 10^−6 cm/s	18.0 10^−6 cm/s	>2 h	100.3%	32.2%	3.06 L/h/kg	51.0 mL/min/kg	1.22 h	55.1%	7.04 L/h/kg	117 mL/min/kg	2.33 h	50.6%	21.32 h	95.9%	34.4%	5.73 L/h/kg	95.6 mL/min/kg	T1/2 (beagle dog hepatocytes): 1.3 h; CYP-3A4 (Midazolam) mean percentage CYP inhibition (CYP3A4): 63.2%; CYP-3A4 (Testosterone) mean percentage CYP inhibition (CYP3A4): 62.6%; T1/2 [5]: 94.15 h; % Remaining at T120 [5]: 101.5%; T1/2 [6]: >2 h; % Remaining at T120 [6]: 105.4%; % Remaining At T120 [7]: 49.2%; CLint (L/hr/kg) [7]: 2.87 L/h/kg; CLint (mL/min/kg) [7]: 47.9 mL/min/kg; T1/2 [7]: 1.95 h
CNS(=O)(=O)Nc1cccc(Cc2c(CN3CCNCC3)c3cc(F)c(OC(=O)N(C)C)cc3oc2=O)c1F [Compound 134]	Higher	2.01	3.99 10^−6 cm/s	8.08 10^−6 cm/s	21.15 h	95.2%	59.8%	1.39 L/h/kg	23.1 mL/min/kg	2.7 h	70.2%	4.18 L/h/kg	69.7 mL/min/kg	3.92 h	20.6%	15.8 h	93.0%	74.7%	1.57 L/h/kg	26.1 mL/min/kg	T1/2 (beagle dog hepatocytes): 4.75 h; CYP-3A4 (Midazolam) mean percentage CYP inhibition (CYP3A4): 44.5%; CYP-3A4 (Testosterone) mean percentage CYP inhibition (CYP3A4): 52.6%; T1/2 [5]: 10.4 h; % Remaining at T120 [5]: 89.9%; T1/2 [6]: 46.85 h; % Remaining at T120 [6]: 100.2%; % Remaining At T120 [7]: 78.5%; CLint (L/hr/kg) [7]: 0.980 L/h/kg; CLint (mL/min/kg) [7]: 16.3 mL/min/kg; T1/2 [7]: 5.73 h
CCCS(=O)(=O)Nc1cccc(Cc2c(CN3CCNCC3)c3cc(Cl)c(OC(=O)N(C)C)cc3oc2=O)c1F [Compound 167]	Lower	23.2	0.845 10^−6 cm/s	19.6 10^−6 cm/s	>2 h	106.9%	31.0%	3.16 L/h/kg	52.6 mL/min/kg	1.18 h	52.5%	7.61 L/h/kg	127 mL/min/kg	2.15 h	67.1%	>2 h	117.3%	17.7%	9.31 L/h/kg	155 mL/min/kg	T1/2 (beagle dog hepatocytes): 0.8 h; CYP-3A4 (Midazolam) mean percentage CYP inhibition (CYP3A4): 54.8%; CYP-3A4 (Testosterone) mean percentage CYP inhibition (CYP3A4): 51.2%; T1/2 [5]: >2 h; % Remaining at T120 [5]: 106.2%; T1/2 [6]: >2 h; % Remaining at T120 [6]: 100.5%; % Remaining At T120 [7]: 29.0%; CLint (L/hr/kg) [7]: 5.02 L/h/kg; CLint (mL/min/kg) [7]: 83.7 mL/min/kg; T1/2 [7]: 1.12 h
